Laboratory results: article PMC5071873, “The Effects of Puerarin on Rat Ventricular Myocytes and the Potential Mechanism” (Scientific Reports, 2016)

Assays:
Kir2.3 = biological target: T1, Kir2.3 (Homo sapiens, UniProt P48050); assay: Whole-cell patch clamp of Kir2.3 currents (ramp voltage protocol) in transfected HEK-293 cells; format: cell-based
T1 sequence (P48050 1-445): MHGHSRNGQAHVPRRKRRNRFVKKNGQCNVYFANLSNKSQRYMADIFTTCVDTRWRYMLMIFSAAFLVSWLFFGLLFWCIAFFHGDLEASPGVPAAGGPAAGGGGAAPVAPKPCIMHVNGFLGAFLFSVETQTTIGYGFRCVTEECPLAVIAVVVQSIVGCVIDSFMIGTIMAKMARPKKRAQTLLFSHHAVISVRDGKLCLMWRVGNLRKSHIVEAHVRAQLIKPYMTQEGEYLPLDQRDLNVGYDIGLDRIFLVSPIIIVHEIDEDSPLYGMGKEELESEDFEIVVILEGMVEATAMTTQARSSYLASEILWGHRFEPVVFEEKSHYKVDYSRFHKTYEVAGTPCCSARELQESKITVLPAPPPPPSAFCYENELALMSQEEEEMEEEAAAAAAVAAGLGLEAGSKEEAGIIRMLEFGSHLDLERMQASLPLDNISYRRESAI
Experimental: The Tyrode’s solution contained (mM): 126 NaCl, 5.4 KCl, 1.8 CaCl2, 1 MgCl2, 0.33 NaH2PO4, 10 HEPES and 10 glucose, pH 7.4 (adjusted with NaOH). The Ca^2+-free Tyrode’s solution was prepared by removing CaCl2 from the Tyrode’s solution. The Kreb’s solution used for cell storage contained (mM): 70 glutamic acid, 30 KCl, 15 taurine, 0.5 MgCl2, 10 KH2PO4, 0.5 EGTA, 10 HEPES, 10 glucose, and 1% albumin, pH 7.4 (adjusted with KOH). The enzyme solution used for the rat cardiomyocyte isolation contained 0.08 g/L collagenase (type II) and 1.0 g/L BSA in Kreb’s solution. For action potential recording on cardiomyocyte, the pipette solution contained (mM): 100 potassium aspartate, 30 KCl, 1 MgCl2, 5 Mg-ATP, 5 EGTA, 5 HEPES, pH 7.3 (adjusted with KOH); the Tyrode’s solution was used as the standard bath solution. For whole-cell recording of IKs on myocytes, the pipette solution contained (mM): 125 potassium aspartate, 20 KCl, 1 MgCl2, 5 Mg-ATP, 10 EGTA, 5 HEPES, pH 7.3 (adjusted with KOH); the bath solution contained (mM): 132 NaCl, 4 KCl, 1.8 CaCl2, 1.2 MgCl2, 10 HEPES, 5 glucose, pH 7.4 (adjusted with NaOH). […]
Cell suspensions were transferred into a chamber on the stage of a Nikon Eclipse Ti inverted microscope (Tokyo, Japan). […] The IK1 was calculated as the difference between the peak inward current and the holding current level. […]

rat ventricular myocytes = assay: Action potential recording on isolated rat ventricular myocytes; format: cell-based; conditions: for APA: control 112.5 ± 6.3; for Vmax: control 226.9 ± 12.4; for RMP: control −80.1 ± 2.7
Experimental: The Tyrode’s solution contained (mM): 126 NaCl, 5.4 KCl, 1.8 CaCl2, 1 MgCl2, 0.33 NaH2PO4, 10 HEPES and 10 glucose, pH 7.4 (adjusted with NaOH). The Ca^2+-free Tyrode’s solution was prepared by removing CaCl2 from the Tyrode’s solution. The Kreb’s solution used for cell storage contained (mM): 70 glutamic acid, 30 KCl, 15 taurine, 0.5 MgCl2, 10 KH2PO4, 0.5 EGTA, 10 HEPES, 10 glucose, and 1% albumin, pH 7.4 (adjusted with KOH). The enzyme solution used for the rat cardiomyocyte isolation contained 0.08 g/L collagenase (type II) and 1.0 g/L BSA in Kreb’s solution. For action potential recording on cardiomyocyte, the pipette solution contained (mM): 100 potassium aspartate, 30 KCl, 1 MgCl2, 5 Mg-ATP, 5 EGTA, 5 HEPES, pH 7.3 (adjusted with KOH); the Tyrode’s solution was used as the standard bath solution. For whole-cell recording of IKs on myocytes, the pipette solution contained (mM): 125 potassium aspartate, 20 KCl, 1 MgCl2, 5 Mg-ATP, 10 EGTA, 5 HEPES, pH 7.3 (adjusted with KOH); the bath solution contained (mM): 132 NaCl, 4 KCl, 1.8 CaCl2, 1.2 MgCl2, 10 HEPES, 5 glucose, pH 7.4 (adjusted with NaOH). 3 μM nifedipine and 5 μM E-4031 were used to block the calcium current and IKr, respectively. For whole-cell recording on HEK-293 cells, the pipette solution contained (mM): 140 KCl, 2 MgCl2, 10 HEPES, 0.1 EGTA, 4 K2-ATP, pH 7.3 (adjusted with KOH); the bath solution contained (mM): 120 NaCl, 5 KCl, 1.5 CaCl2, 1 MgCl2, 10 HEPES, 10 glucose, pH 7.4 (adjusted with NaOH). For single-channel recording, the pipette solution (extracellular) contained (mM): 145 KCl, 10 HEPES, 10 glucose, pH 7.4 (adjusted with KOH); the bath solution (intracellular) contained (mM): 145 KCl, 1.2 MgCl2, 10 HEPES, 0.1 EGTA, pH 7.38 (adjusted with KOH).
Single ventricular myocytes were isolated from adult rat hearts via enzymatic dissociation as previously described. Briefly, the rats were anesthetised with 25% chloral hydrate (0.1 g/100 g). Their hearts were excised rapidly and retrogradely perfused on a Langendorff apparatus with a Ca^2+-free Tyrode’s solution for 5 min before the perfusate was switched to an enzymatic solution for 10–20 min. The perfusate was finally changed to Kreb’s solution for 5 min. The perfusates were bubbled with 95% O2 + 5% CO2 and maintained at 37 °C. The ventricles w ere cut into small chunks and gently agitated in Kreb’s solution. The cells were filtered through nylon mesh (pore size 200 μm) and stored in Kreb’s solution at 4 °C.
Action potentials were elicited at 1 Hz by 2 ms current pulses applied using the patch pipette.
Cell suspensions were transferred into a chamber on the stage of a Nikon Eclipse Ti inverted microscope (Tokyo, Japan). The whole-cell recordings were performed using isolated single ventricular myocytes. Patch electrodes were pulled from a horizontal microelectrode puller (P-1000, Sutter Instrument Co, USA) and fire polished to final tip resistance of 4.0–8.0 MΩ when filled with internal solutions. Signals were amplified with an Axopatch 200B amplifier (Axon Instruments, USA) and filtered at 1 kHz. The pCLAMP 9.0 software was used to generate current and voltage clamp protocols, acquire data, and analyse the current traces. The whole-cell series resistance was compensated to more than 80%. All of the experiments were performed at room temperature (22 ± 1 °C). The whole-cell IK1 was elicited by a ramp voltage protocol from −140 to + 40 mV in 1 s, or at a 0 mV holding potential to test potentials from −140 to + 40 mV in 10 mV increments. The IK1 was calculated as the difference between the peak inward current and the holding current level. The whole-cell Kv7.1/IKs were elicited from a −30 mV holding potential to test potentials from −80 to + 40 mV in 10 mV increments.

`O=c1c(-c2ccc(O)cc2)coc2c([C@@H]3O[C@H](CO)[C@@H](O)[C@H](O)[C@H]3O)c(O)ccc12` [Puerarin, 8-c-glucoside of daidzein] was tested, and the “effect on Kir2.3 currents at low concentrations” value (Kir2.3; 10 μM, 100 μM, 1 mM) was “less effect”, the “Hill coefficient, inhibition of Kir2.3” value (Kir2.3; non-linear Hill fit) was 0.984 and the APD50 (rat ventricular myocytes; puerarin 0.01 mM, control 71.8 ± 11.8) was 86.9 ± 10.7 ms. For the same compound, the APA (rat ventricular myocytes; puerarin 0.01 mM) was 109.8 ± 8.5 mV, the APD90 (rat ventricular myocytes; puerarin 0.01 mM, control 164.6 ± 21.4) was 188.3 ± 11.5 ms and the Vmax (rat ventricular myocytes; puerarin 0.01 mM) was 217.5 ± 10.7 V/s. The RMP (rat ventricular myocytes; puerarin 0.01 mM) was −80.5 ± 2.2 mV, the “effect on RMP, APA and Vmax” value (rat ventricular myocytes; puerarin 100 μM) was “not affected” and the “effect on isoproterenol-reduced APD (APD50, APD90)” value (rat ventricular myocytes; puerarin 100 μM with isoproterenol 10 nM) was “significantly offseted the reduced effect of isoproterenol”. It also gave an APD50 (rat ventricular myocytes; puerarin 100 μM, from (71.8 ± 11.8) mS) of 100.5 ± 14.1 mS, an APD90 (rat ventricular myocytes; puerarin 100 μM, from (164.6 ± 21.4) mS) of 221.6 ± 25.7 mS and an APD50 (rat ventricular myocytes; puerarin 0.1 mM, control 71.8 ± 11.8) of 100.5 ± 14.1 ms. For the same compound, the APA (rat ventricular myocytes; puerarin 0.1 mM) was 114.2 ± 4.9 mV, the APD90 (rat ventricular myocytes; puerarin 0.1 mM, control 164.6 ± 21.4) was 221.6 ± 25.7 ms and the Vmax (rat ventricular myocytes; puerarin 0.1 mM) was 242.1 ± 13.8 V/s. It also gave an RMP (rat ventricular myocytes; puerarin 0.1 mM) of −80.3 ± 1.6 mV, an APD50 (rat ventricular myocytes; puerarin 1 mM, control 71.8 ± 11.8) of 123.6 ± 25.4 ms and an APA (rat ventricular myocytes; puerarin 1 mM) of 115.9 ± 6.2 mV. For the same compound, the APD90 (rat ventricular myocytes; puerarin 1 mM, control 164.6 ± 21.4) was 278.7 ± 28.2 ms, the Vmax (rat ventricular myocytes; puerarin 1 mM) was 236.1 ± 15.9 V/s and the RMP (rat ventricular myocytes; puerarin 1 mM) was −79.7 ± 1.5 mV. It also gave an APD50 (rat ventricular myocytes; puerarin 10 mM, control 71.8 ± 11.8) of 131.4 ± 19.6 ms, an APA (rat ventricular myocytes; puerarin 10 mM) of 112.6 ± 4.7 mV and an APD90 (rat ventricular myocytes; puerarin 10 mM, control 164.6 ± 21.4) of 330.1 ± 22.3 ms. For the same compound, the Vmax (rat ventricular myocytes; puerarin 10 mM) was 238.4 ± 11.5 V/s, the RMP (rat ventricular myocytes; puerarin 10 mM) was −75.3 ± 2.4 mV and the APD50 (rat ventricular myocytes; puerarin 100 mM, control 71.8 ± 11.8) was 146.9 ± 21.8 ms. The APA (rat ventricular myocytes; puerarin 100 mM) was 113.8 ± 5.1 mV, the APD90 (rat ventricular myocytes; puerarin 100 mM, control 164.6 ± 21.4) was 415.6 ± 28.4 ms and the Vmax (rat ventricular myocytes; puerarin 100 mM) was 240.6 ± 12.1 V/s. The RMP (rat ventricular myocytes; puerarin 100 mM) was −74.7 ± 2.6 mV, the APD50 (rat ventricular myocytes; puerarin 200 mM, control 71.8 ± 11.8) was 162.3 ± 23.5 ms and the APD90 (rat ventricular myocytes; puerarin 200 mM, control 164.6 ± 21.4) was 439.5 ± 29.6 ms. The RMP (rat ventricular myocytes; puerarin 200 mM) was −73.5 ± 2.1 mV, the APA (rat ventricular myocytes; puerarin) was 111.7 ± 5.6 mV and the Vmax (rat ventricular myocytes; puerarin) was 237.8 ± 10.4 V/s.
